The values below come from patent US11529350B2, “Tyrosine kinase non-receptor 1 (TNK1) inhibitors and uses thereof” (Sumitomo Pharma Oncology, Inc., priority 2019, dated 2022).

The target of test [1] is T1, TNK1 (Homo sapiens, UniProt Q13470).
T1 sequence (Q13470 1-666): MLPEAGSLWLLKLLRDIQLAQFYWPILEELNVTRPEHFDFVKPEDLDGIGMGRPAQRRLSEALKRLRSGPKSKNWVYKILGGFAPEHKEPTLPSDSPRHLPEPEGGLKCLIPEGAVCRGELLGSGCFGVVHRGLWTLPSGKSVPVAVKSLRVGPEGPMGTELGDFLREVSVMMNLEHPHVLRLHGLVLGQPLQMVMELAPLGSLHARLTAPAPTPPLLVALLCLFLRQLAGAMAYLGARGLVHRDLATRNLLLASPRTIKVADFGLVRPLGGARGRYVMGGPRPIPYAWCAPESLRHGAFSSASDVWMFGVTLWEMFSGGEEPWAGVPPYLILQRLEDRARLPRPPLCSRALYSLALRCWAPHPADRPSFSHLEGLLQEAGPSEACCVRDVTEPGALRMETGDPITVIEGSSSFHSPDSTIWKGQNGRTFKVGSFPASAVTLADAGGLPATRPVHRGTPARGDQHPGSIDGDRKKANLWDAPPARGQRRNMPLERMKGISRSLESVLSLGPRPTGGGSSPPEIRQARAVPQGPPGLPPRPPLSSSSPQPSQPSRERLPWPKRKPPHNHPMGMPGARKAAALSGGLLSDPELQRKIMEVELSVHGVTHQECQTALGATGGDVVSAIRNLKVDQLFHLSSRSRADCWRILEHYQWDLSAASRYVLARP
As to the kind of experiment: TNK1 NanoBRET target engagement assay (HEK293). In kind it is cell-based. The arrangement: host or cells: HEK293. The conditions noted are these: HEK293 cells, 2 hours; read-out: NanoBRET TE Assay (HEK293) IC50. An excerpt:
The NanoBRET target engagement (TE) assay (Promega, Madison, Wis.) enables the interrogation of the displacement of a tracer compound in the active site of a recombinant kinase by a test compound in the intracellular setting. The assay enables simultaneous testing of permeability, solubility, and kinase inhibition, and tests the specific interaction of test agents with a kinase of interest, here, TNK1. The assay is based on the principle of bioluminescence resonance energy transfer (BRET). In the assay, a plasmid-encoded, luciferase-tagged form of TNK1 is transfected into cells. A tracer compound is tagged with a fluorophore that fluoresces when bound to the TNK1 protein. Readout is luminescence and fluorescence. Test compounds show activity by displacing the tracer, thus disrupting BRET.
Methods: The TNK1 NanoBRET TE assays were performed according to the manufacturer's protocol. Briefly, Nanoluc-TNK1 Fusion Vector (Promega, Madison, Wis., Cat. No. NV2181) was transfected into HEK293 cells in bulk (8×10^6 cells in a T175 flask). Up to 30 hours post-transfection, cells were harvested by trypsinization, resuspended at a concentration of 2×10^5 cells/mL, and seeded in 96-well plates at 85 μL/well. A test compound and the K5 tracer were added to each well, and the cells were incubated for 2 hours. Luminescence ([…]) and fluorescence ([…]) were measured to determine a BRET ratio. IC50 values were determined from the BRET ratios using the Graphpad Prism software (GraphPad Software, San Diego, Calif.).
(BRET reads energy transfer from a luciferase to a nearby fluorophore.)

The test system of test [2] is phospho-STAT5 in L540 cells. Kind of test: In vitro pSTAT5 assay (ELISA) in L540 cells. In kind it is cell-based. Conditions: Homo sapiens, L-540, 24 hours, normalized to cell viability, read-out: P-STAT5 Assay IC50. The procedure:
The L540 cell line harbors a truncating mutation in the C-terminal regulatory region of the protein. As a consequence, TNK1 in L540 cells is constitutively active in phosphorylating key proteins, including STAT5. In TNK1 wild-type conditions (e.g., K562 CML cells), STAT5 phosphorylation is achieved in a TNK1-independent fashion. As such, reductions in phospho-STAT5 signal specific to the L540 cells are a good readout of TNK1 inhibitor function.
Methods: The in vitro pSTAT5 assay was performed with STAT5 AB (pY964/699) SimpleStep ELISA Kit (Abcam No. ab176656) according to the manufacturer's protocol. Briefly, L540 cells were grown in RPMI1640 media under standard culture conditions (10% FBS with penicillin/streptomycin). To assess test compound effects, cells were plated in 96 well plates (250,000 cells/mL) and allowed to grow overnight. Cells were subsequently treated with varying concentrations of test compound for 24 hours, before being harvested and interrogated with the STAT5 AB (pY964/699) SimpleStep ELISA Kit according to the manufacturer's protocol. Phospho-STAT5 signal was normalized to cell viability, as assessed by the CellTiter-Glo assay (Promega, Cat. No. G7570) on treated cells. TNK1 inhibitor IC50s were determined using Graphpad Prism software on normalized phospho-STAT5 measurements.
For orientation: An ELISA detects its analyte on a solid surface through an enzyme-linked reagent.

The target in test [3] is T1, TNK1. Kind of test: RBC HotSpot Kinase Assay. In kind it is biochemical. Set-up: purchased Reaction Biology Corp., Malvern, Pa. The conditions noted are these: ATP 10 μM. Here is the method: The RBC HotSpot Kinase assay (Reaction Biology Corp., Malvern, Pa.) was used to evaluate the ability of test compounds to modulate (e.g., inhibit) the enzymatic activity of human TNK1 (UniProt Accession No. Q13470) in the following reaction:
Reagent: Base Reaction buffer; 20 mM Hepes (pH 7.5), 10 mM MgCl2, 1 mM EGTA, 0.02% Brij35, 0.02 mg/ml BSA, 0.1 mM Na3VO4, 2 mM DTT, 1% DMSO. Required cofactors were added individually to each kinase reaction.
Compound handling: Test compounds were dissolved in 100% DMSO to specific concentration. The serial dilution was conducted by Integra Viaflo Assist in DMSO.
1. Prepared substrate (peptide substrate, poly[Glu:Tyr] (4:1), 0.2 mg/ml; ATP 10 μM) in freshly prepared Reaction Buffer;
2. Delivered any required cofactors to the substrate solution;
3. Delivered kinase (TNK1) into the substrate solution and gently mixed;
4. Delivered compounds in 100% DMSO into the kinase reaction mixture by Acoustic technology (Echo550; nanoliter range), incubated for 20 minutes at room temperature;
5. Delivered ^33P-ATP (specific activity 10 μCi/μl) into the reaction mixture to initiate the reaction;
6. Incubated for 2 hours at room temperature;
7. Detected radioactivity by filter-binding method;
8. Kinase activity data were expressed as the percent remaining kinase activity in test samples compared to vehicle (dimethyl sulfoxide) reactions. IC50 values and curve fits were obtained using Prism (GraphPad Software).

For another test, the system named is A549 cells. Kind of test: Combination with bortezomib, A549 cell confluency (Incucyte). In kind it is cell-based. Conditions: 1 nM alone, two independent experiments. Here is the method:
A549 cells were seeded in log phase (e.g., at 40-60% confluency) in a well plate. Drug treatments were: no drug treatment, DMSO, bortezomib at 50 nM, 10 nM, 5 nM, 2 nM or 1 nM, Example No. 13 at 10 nM, and bortezomib 50 nM, 10 nM, 5 nM, 2 nM or 1 nM combined with Example No. 13 at 10 nM. The DMSO concentrations were kept constant (including DMSO control) to control for any confounding DMSO toxicity.
Drug addition protocol: On day 1, cells were seeded at 60,000 cells/well, and incubated for 24 hours to allow adherence. On day 2, media was aspirated and replaced with 500 μl of the drug media preparations described below in correlating wells. The plates were placed in Incucyte for 7-14 days, and cell confluency was measured every 2 hours. […]

For `COc1cc(N2CCN(C)CC2)c(Cl)cc1Nc1ncc(Cl)c(Nc2cccnc2N2CCCCC2=O)n1` [Example No. 19, 1-(3-((5-chloro-2-((5-chloro-2-methoxy-4-(4-methylpiperazin-1-yl)phenyl)amino)pyrimidin-4-yl)amino)pyridin-2-yl)piperidin-2-one], the figures for the 50% inhibitory concentration (IC50) (at TNK1 [1]; in test [2]; at TNK1 [3]) were 0.15 to 1 µM, 0.005 to 0.05 µM and 0.005 to 0.015 µM, respectively.
In the same order, the values of `COc1cc(N2CCN(C)CC2)c(C)cc1Nc1ncc(Cl)c(Nc2cccnc2N(C)C)n1` [compound 6, 5-chloro-N^4-(2-(dimethylamino)pyridin-3-yl)-N^2-(2-methoxy-5-methyl-4-(4-methylpiperazin-1-yl)phenyl)pyrimidine-2,4-diamine] are 0.15 to 1 µM, 0.005 to 0.05 µM and < 0.005 µM.
As to `CC(C)C[C@H](NC(=O)[C@H](Cc1ccccc1)NC(=O)c1cnccn1)B(O)O` [Bortezomib, bortezomib, reference compound], in the test with A549 cells, the “cell growth inhibition, alone” value was “no inhibition of cell growth”.
On to `COc1cc(N2CCN(C)CC2)c(C)cc1Nc1ncc(Cl)c(Nc2cccnc2N2CCCCC2=O)n1` [Example No. 15, 1-(3-((5-chloro-2-((2-methoxy-5-methyl-4-(4-methylpiperazin-1-yl)phenyl)amino)pyrimidin-4-yl)amino)pyridin-2-yl)piperidin-2-one], for which the values for the concentration for half-maximal inhibition (IC50) (on TNK1 [1]; in test [2]; on TNK1 [3]) were 0.15 to 1 µM, > 0.05 µM and 0.015 to 0.05 µM, respectively.
For `COc1cc(N2CCN(C)CC2)ccc1Nc1ncc(Cl)c(Nc2cccnc2N(C)C)n1` [Example No. 16, 5-chloro-N4-(2-(dimethylamino)pyridin-3-yl)-N2-(2-methoxy-4-(4-methylpiperazin-1-yl)phenyl)pyrimidine-2,4-diamine], in that order: 0.15 to 1 µM, 0.005 to 0.05 µM and < 0.005 µM.

Usually IC50 stands for the concentration that gives 50% inhibition.
